Assay results taken from patent publication US12459958B2, “Tricyclic compounds as HPK1 inhibitor and the use thereof” (BEIGENE, LTD., priority 2019, dated 2025).

Each compound was assayed against T1, HPK1 kinase (aa1-346, Life Technologies) (Homo sapiens, UniProt Q92918) (assay: HPK Kinase Activity Assay at 1 mM ATP (TR-FRET)). Conditions: HPK1 kinase 40 nM, 0.5 μM STK1 substrate, read-out: Enzymatic activity IC50.
T1 construct: HPK1 kinase (aa1-346, Life Technologies); purchased Life Technologies
T1 sequence (Q92918 1-346): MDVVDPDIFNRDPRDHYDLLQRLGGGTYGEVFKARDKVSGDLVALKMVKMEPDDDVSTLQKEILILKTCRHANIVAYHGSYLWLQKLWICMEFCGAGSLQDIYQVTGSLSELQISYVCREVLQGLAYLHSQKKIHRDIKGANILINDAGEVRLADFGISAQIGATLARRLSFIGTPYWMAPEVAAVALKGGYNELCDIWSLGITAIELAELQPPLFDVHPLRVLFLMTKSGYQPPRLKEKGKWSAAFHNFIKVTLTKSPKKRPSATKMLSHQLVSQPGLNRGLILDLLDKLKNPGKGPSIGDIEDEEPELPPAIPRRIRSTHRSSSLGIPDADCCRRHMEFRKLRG
Format: biochemical
Procedure: HPK Kinase Activity Assay at 1 mM ATP
Compounds disclosed herein were tested for inhibition of HPK1 kinase (aa1-346, Life Technologies) activity in assays based on the time-resolved fluorescence-resonance energy transfer (TR-FRET) methodology. The assays were carried out in 384-well low volume black plates in a reaction mixture containing HPK1 kinase (40 nM), 1 mM ATP, 0.5 μM STK1 substrate and 0-10 μM compound in buffer containing 50 mM HEPES, 0.01% BSA, 0.1 mM Orthovanadate, 10 mM MgCl2, 1 mM DTT, pH=7.0, 0.005% Tween-20. The kinase was incubated with the compounds disclosed herein or DMSO for 60 minutes at room temperature and the reaction was initiated by the addition of ATP and STK1 substrate. After reaction at room temperature for 120 minutes, an equal volume of stop/detection solution was added according to the manufacture's instruction (CisBio). The stop/detection solution contained STK Antibody-Cryptate and XL665-conjugated streptavidin in Detection Buffer. The TR-FRET signals (ratio of fluorescence emission at 665 nm over emission at 620 nm with excitation at 337 nm wavelength) were recorded on a PHERAstar FS plate reader (BMG Labtech). Phosphorylation of STK1 substrate led to the binding of STK Antibody-Cryptate to the biotinylated STK1 substrate, which places fluorescent donor (Eu^3+ crypate) in close proximity to the accepter (Streptavidin-XL665), thus resulting in a high degree of fluorescence resonance energy transfer. The inhibition of HPK1 in presence of increasing concentrations of compounds was calculated based on the ratio of fluorescence at 665 nm to that at 620 nm. The IC50 for each compound was derived from fitting the data to the four-parameter logistic equation by Graphpad Prism software.

SMILES | IC50 [nM]
Cc1cc(-c2cnc3[nH]cc(-c4ccc(C(=O)N(C)C[C@@H]5CCOC5)cc4)c3n2)cc2c1N1CCN(C)C[C@@H]1CC2 [Example 10B, 4-(2-((S)-3,10-dimethyl-2,3,4,4a,5,6-hexahydro-1H-pyrazino[1,2-a]quinolin-8-yl)-5H-pyrrolo[2,3-b]pyrazin-7-yl)-N-methvl-N—(((S)-tetrahydrofuran-3-yl)methyl)benzamide] | 17
Cc1cc(-c2c[nH]c3ncc(-c4cc(C)c5c(c4)CC[C@@H]4CN(C)CCN54)nc23)ccc1C(=O)N(C)C[C@@H]1CCOC1 [Example 11A, 4-(2-((R)-3,10-dimethyl-2,3,4,4a,5,6-hexahydro-1H-pyrazino[1,2-a]quinolin-8-yl)-5H-pyrrolo[2,3-b]pyrazin-7-yl)-N,2-dimethyl-N—(((S)-tetrahydrofuran-3-yl)methyl)benzamide] | 52
Cc1cc(-c2c[nH]c3ncc(-c4cc(C)c5c(c4)CC[C@H]4CN(C)CCN54)nc23)ccc1C(=O)N(C)C[C@@H]1CCOC1 [Example 11B, 4-(2-((S)-3,10-dimethyl-2,3,4,4a,5,6-hexahydro-1H-pyrazino[1,2-a]quinolin-8-yl)-5H-pyrrolo[2,3-b]pyrazin-7-yl)-N,2-dimethyl-N—(((S)-tetrahydrofuran-3-yl)methyl)benzamide] | 53
Cc1cc(-c2cnc3[nH]cc(-c4ccc(C(=O)N(C)CC(C)(C)O)cc4)c3n2)cc2c1N1CCN(C)C[C@H]1CC2 [Example 12A, (R)-4-(2-(3,10-dimethyl-2,3,4,4a,5,6-hexahydro-1H-pyrazino[1,2-a]quinolin-8-yl)-5H-pyrrolo[2,3-b]pyrazin-7-yl)-N-(2-hydroxy-2-methylpropyl)-N-methylbenzamide] | 52
Cc1cc(-c2cnc3[nH]cc(-c4ccc(C(=O)N(C)CC(C)(C)O)cc4)c3n2)cc2c1N1CCN(C)C[C@@H]1CC2 [Example 12B, (S)-4-(2-(3,10-dimethyl-2,3,4,4a,5,6-hexahydro-1H-pyrazino[1,2-a]quinolin-8-yl)-5H-pyrrolo[2,3-b]pyrazin-7-yl)-N-(2-hydroxy-2-methylpropyl)-N-methylbenzamide] | 52
Cc1cc(-c2c[nH]c3ncc(-c4cc(C)c5c(c4)CC[C@@H]4CN(C)CCN54)nc23)ccc1C(=O)N(C)CC(C)(C)O [Example 13A, (R)-4-(2-(3,10-dimethyl-2,3,4,4a,5,6-hexahydro-1H-pyrazino[1,2-a]quinolin-8-yl)-5H-pyrrolo[2,3-b]pyrazin-7-yl)-N-(2-hydroxy-2-methylpropyl)-N,2-dimethylbenzamide] | 101
Cc1cc(-c2c[nH]c3ncc(-c4cc(C)c5c(c4)CC[C@H]4CN(C)CCN54)nc23)ccc1C(=O)N(C)CC(C)(C)O [Example 13B, (S)-4-(2-(3,10-dimethyl-2,3,4,4a,5,6-hexahydro-1H-pyrazino[1,2-a]quinolin-8-yl)-5H-pyrrolo[2,3-b]pyrazin-7-yl)-N-(2-hydroxy-2-methylpropyl)-N,2-dimethylbenzamide] | 96
